Measured values taken from US20110262355A1, “COMPOSITIONS COMPRISING ENZYME-CLEAVABLE OPIOID PRODRUGS AND INHIBITORS THEREOF” (priority 2010, published 2011).
Read-outs that look alike come from different tables or passages of the source.

Columns and labels:
[1] = male, Sprague Dawley, rat, in vivo
[2] = In vitro stability of Compound KC-2 to household chemicals and enzyme preparations; type: physicochemical; conditions: vodka, baking soda, WINDEX, vinegar (RT or 80° C.), GNC Super Digestive, tenderizer, subtilisn (RT); 1 or 24 hr
Description: Samples were incubated as described and aliquots removed at 1 hr and 24 hr and stabilized by adding each to a solution of 50% or 100% of 85% phosphoric acid solution to achieve a final pH of less than or equal to pH 4. The stabilized aliquots were then diluted 4- to 6-fold with water, vortex-mixed and applied to HPLC.

human μ-opioid receptor [3] = biological target: T1, human μ-opioid receptor (Homo sapiens, UniProt P35372); test: cell-based; design: expressed in transfected cells; host or cells: CHO; conditions: agonist response, cAMP (HTRF); recombinant CHO cells; 37° C., 10 min; three separate experiments
Description: This Example measures the ability of certain compounds of the present disclosure to effect an agonist response when exposed to recombinant human μ-opioid receptor expressed in CHO cells.
A. and Uhl, G. R. (1994). […] The control reaction included 1 μM DAMGO. The reaction mixtures were incubated at 37° C. for 10 min, and the reaction product was cyclic AMP (cAMP). The samples were submitted to homogeneous time resolved fluorescence (HTRF®). EC50 values (concentration producing a half-maximal specific response) were determined by non-linear regression fit using the Hillplot software.

[4] = biological target: T2, trypsin from bovine pancreas (Bos taurus, UniProt P00760); test: In vitro trypsin-mediated release of oxycodone from Compound KC-2, without or with Compound 109; type: biochemical; design: purchased Sigma-Aldrich T8003; host or cells: bovine pancreas; conditions: 0.761 mM KC-2; 0.0228 mg/mL trypsin; 37° C.; no trypsin inhibitor
T2 sequence (P00760 24-246): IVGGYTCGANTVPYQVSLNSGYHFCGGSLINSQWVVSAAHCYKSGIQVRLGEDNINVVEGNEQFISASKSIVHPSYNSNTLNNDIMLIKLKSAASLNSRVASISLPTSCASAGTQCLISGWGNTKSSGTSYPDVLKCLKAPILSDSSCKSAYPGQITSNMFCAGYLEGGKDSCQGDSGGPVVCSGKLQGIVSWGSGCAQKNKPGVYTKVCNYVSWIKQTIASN
Source text: (§1) The square symbols indicate the disappearance of Compound KC-2, and the triangle symbols depict the appearance of oxycodone, over time under the conditions described in this Example.

trypsin = biological target: T3, trypsin (Bos taurus, UniProt P00760); test: as above; type: biochemical, bovine; design: purchased Sigma-Aldrich T8003; host or cells: bovine pancreas; conditions: bovine, trypsin from bovine pancreas, read-out: Pro-drug trypsin half-life, h Average ± sd (converted)
T3 sequence (P00760 24-246): T2 sequence (P00760 24-246)
Source text: as §1

[5] = Pharmacokinetics of oxycodone prodrug Compound KC-2 or oxycodone following PO administration to rats; type: in vivo; conditions: rat, KC-2 20 mg/kg vs oxycodone 10 mg/kg
human μ-opioid receptor [6] = biological target: T1, human μ-opioid receptor; test: In vitro human μ-opioid receptor binding assay
[7] = Oral administration of Compound PC-4 and SBTI trypsin inhibitor to rats; conditions: HM in rat plasma, PC-4 20 mg/kg
[8] = HM in rat plasma, PO, PC-4 20 mg/kg
[9] = biological target: T2, trypsin from bovine pancreas; test: In vitro trypsin conversion of prodrugs to hydromorphone and inhibition by trypsin inhibitor; conditions: with trypsin inhibitor 3,089 uM Compound 109
Description: The reactions were conducted at 37° C. for 24 hr. Samples were collected at specified time points, transferred into 0.5% formic acid in acetonitrile to stop trypsin activity and stored at less than −70° C. until analysis by LC-MS/MS.
The results are expressed as half-life of prodrug when exposed to trypsin (i.e., Prodrug trypsin half-life) in hours and rate of formation of HM per unit of trypsin.

[10] = biological target: T2, trypsin from bovine pancreas; test: In vitro trypsin-mediated release of drug from ketone-modified opioid prodrugs KC-3 to KC-6, effect of Compound 109; conditions: 0.761 mM prodrug, 37° C., no trypsin inhibitor
Source text: Other reaction and sample treatment conditions were as described above.

[11] = male, Sprague Dawley, rat, in vivo; remark: listed apart in the source
[12] = Pharmacokinetics of Compound KC-6 following PO administration to rats; conditions: rat; PO Compound KC-6

T1 sequence (P35372 whole entry): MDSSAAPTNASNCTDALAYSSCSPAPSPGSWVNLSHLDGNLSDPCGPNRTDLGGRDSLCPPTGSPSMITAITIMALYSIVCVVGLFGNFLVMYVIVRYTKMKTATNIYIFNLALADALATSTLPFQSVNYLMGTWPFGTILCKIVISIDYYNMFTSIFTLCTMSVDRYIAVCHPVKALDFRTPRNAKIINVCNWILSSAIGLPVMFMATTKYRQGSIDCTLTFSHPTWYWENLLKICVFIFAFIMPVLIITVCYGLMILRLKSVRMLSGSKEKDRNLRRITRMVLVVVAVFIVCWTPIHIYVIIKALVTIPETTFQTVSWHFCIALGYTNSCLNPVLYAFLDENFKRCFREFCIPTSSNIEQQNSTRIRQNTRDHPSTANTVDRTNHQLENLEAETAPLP

COc1ccc2c3c1O[C@H]1C(OC(=O)N(C)CCNC(=O)[C@H](CCCNC(=N)N)NC(C)=O)=CC[C@@]4(O)[C@@H](C2)N(C)CC[C@]314 [Compound KC-2, Oxycodone 6-(N-methyl-N-(2-N′-acetylarginylamino))ethylcarbamate]
Compound conc. in CSF [1]: 61.9 ng/mL
Compound conc. in Plasma [1]: 27,200 ng/mL
Plasma/CSF partitioning coefficient [1]: 439
conversion to oxycodone [2]: less than 10%
EC50 (human μ-opioid receptor [3]): 490 nM
Rate of oxycodone formation, umols/h/umol trypsin Average ± sd [4]: 37.4 ± 0.9 umols/h/umol trypsin
half-life at 0.761 mM (trypsin; pH 8, with Compound 109 (trypsin inhibitor) 2 µM ([…])): 4.83 ± 4.92 days
half-life at 0.761 mM (trypsin; pH 8, 0.761 mM KC-2, 0.0228 mg/mL trypsin, 37° C., no trypsin inhibitor): 0.235 ± 0.0108 days
oxycodone plasma concentrations compared to administration of oxycodone [5]: suppressed Cmax and delayed Tmax compared to administration of oxycodone
IC50 (human μ-opioid receptor [6]): 22 nM

CCN(CCNC(=O)[C@H](CCCNC(=N)N)NC(C)=O)C(=O)Oc1ccc2c3c1OC1C(=O)CCC4C(C2)N(C)CCC314 (stereo partly drawn) [Compound PC-4, [2-((S)-2-Acetylamino-5-guanidino-pentanoylamino)-ethyl]-ethyl-carbamic acid hydromorphone ester]
Cmax (ng/mL HM) ([7]; SBTI 0 mg/kg, 7 rats): 7.7 ± 2.3 ng/mL
Tmax ([7]; SBTI 0 mg/kg, 7 rats): 2.3 h
Cmax (ng/mL HM) ([7]; SBTI 500 mg/kg, 4 rats): 7.5 ± 2.1 ng/mL
Tmax ([7]; SBTI 500 mg/kg, 4 rats): 6.5 h
Cmax (ng/mL HM) ([8]; Compound 101 0 mg/kg, 7 rats): 7.7 ± 2.3 ng/mL
Tmax ([8]; Compound 101 0 mg/kg, 7 rats): 2.3 h
Cmax (ng/mL HM) ([8]; Compound 101 10 mg/kg, 4 rats): 4.8 ± 1.4 ng/mL
Tmax ([8]; Compound 101 10 mg/kg, 4 rats): 6.0 h
Rate of HM formation, umols/h/umol trypsin Average ± sd [9]: 3.27 ± 1.87 umols/h/umol trypsin

COc1ccc2c3c1O[C@H]1C(OC(=O)N(C)C[C@H](NC(=O)[C@H](CCCNC(=N)N)NC(C)=O)C(=O)N(C)CC(=O)O)=CC[C@@]4(O)[C@@H](C2)N(C)CC[C@]314 [Compound KC-6, ({(S)-2-((S)-2-Acetylamino-5-guanidino-pentanoylamino)-3-[(oxycodone-enyloxycarbonyl)-methyl-amino]-propionyl]-methyl-amino)-acetic acid]
Rate of oxycodone formation, umol/h/BAEE U Average ± sd ([10]; 241 BAEE U trypsin/mL): 0.0118 ± 0.0042 umol/h/BAEE U
Rate of oxycodone formation, umol/h/BAEE U Average ± sd ([10]; 4815 BAEE U trypsin/mL): 0.00571 ± 0.0002 umol/h/BAEE U
Compound conc. in CSF [11]: 74.1 ng/mL
Compound conc. in Plasma [11]: 60,400 ng/mL
Plasma/CSF partitioning coefficient [11]: 815
plasma/CSF partitioning coefficient [11]: 815
EC50 (human μ-opioid receptor [3]): 1800 nM
oxycodone plasma concentrations compared to administration of oxycodone [12]: suppressed Cmax and AUC and delayed Tmax compared to administration of oxycodone
